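Method: 48-hour compound exposure of cells in 96-well plates, five concentrations, linear interpolation of endpoints. GI50 marks 50% less growth. TGI: total growth inhibition.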
Tests used:
Test in all cases: inhibition of tumour cell growth, NCI panel, 48 h
RXF 393 renal = tested on: RXF 393 renal
MDA-MB-435 = tested on: MDA-MB-435
SK-MEL-28 melanoma = tested on: SK-MEL-28 melanoma
NCI-H460 lung = tested on: NCI-H460 lung
ACHN renal = tested on: ACHN renal
UACC-62 melanoma = tested on: UACC-62 melanoma
EKVX NSCLC = tested on: EKVX NSCLC
A498 renal = tested on: A498 renal
SK-MEL-5 melanoma = tested on: SK-MEL-5 melanoma
M14 melanoma = tested on: M14 melanoma

Structure (SMILES) | GI50 (RXF 393 renal) | TGI (RXF 393 renal) | GI50 (MDA-MB-435) | TGI (MDA-MB-435) | GI50 (SK-MEL-28 melanoma) | TGI (SK-MEL-28 melanoma) | GI50 (NCI-H460 lung) | TGI (NCI-H460 lung) | GI50 (ACHN renal) | TGI (ACHN renal) | GI50 (UACC-62 melanoma) | TGI (UACC-62 melanoma) | GI50 (EKVX NSCLC) | TGI (EKVX NSCLC) | GI50 (A498 renal) | TGI (A498 renal) | GI50 (SK-MEL-5 melanoma) | TGI (SK-MEL-5 melanoma) | GI50 (M14 melanoma) | TGI (M14 melanoma)
O=C(Nc1ccccc1Cl)c1ccc(NC2=C(Cl)C(=O)N(Cc3ccccc3)C2=O)cc1 | 18.4 µM | 38.2 µM | 48.4 µM | > 100 µM | 43 µM | > 100 µM | 33.3 µM | > 100 µM | 37.6 µM | > 100 µM | 19.5 µM | 41.1 µM | > 100 µM | > 100 µM | > 100 µM | > 100 µM | 32.7 µM | > 100 µM | 79.4 µM | > 100 µM
O=[N+]([O-])c1ccc2[nH]cc(-c3c4ccccc4cc4[nH]c5ccc([N+](=O)[O-])cc5c34)c2c1 | 2.03 µM | 4.73 µM | 1.8 µM | 4.89 µM | 1.8 µM | 3.71 µM | 2.72 µM | 7.7 µM | 2.42 µM | 6.97 µM | 1.63 µM | 3.47 µM | 2.4 µM | 8.41 µM | 1.53 µM | 4.25 µM | 1.62 µM | 2.98 µM | 1.67 µM | 3.22 µM
O=C1c2cccnc2-c2nc(-c3ccc([N+](=O)[O-])cc3)cc3c2c1nc1ccccc13 | 9.37 µM | 37.7 µM | 1.69 µM | 3.06 µM | 12.7 µM | 27.8 µM | 2.34 µM | 8.62 µM | 5.03 µM | 30 µM | 5.43 µM | 15.6 µM | 10.7 µM | 44.6 µM | 24.2 µM | 65.5 µM | 0.825 µM | 2.45 µM | 1.9 µM | 4.43 µM
O=C(O)/C(Cl)=C(/Cl)C(=O)Nc1cccc(Cl)c1 | – | 30 µM | – | 46.5 µM | – | 32.8 µM | – | > 100 µM | – | 36.8 µM | – | 31.7 µM | – | 33.6 µM | – | > 100 µM | – | 33.1 µM | – | 43.2 µM
COc1cc(/C=C/C(=O)c2ccc(Nc3nc(Nc4ccc(F)cc4)nc(Nc4ccc(F)cc4)n3)cc2)cc(OC)c1OC | 2.74 µM | 7.49 µM | 17.1 µM | > 100 µM | 26.7 µM | > 100 µM | 7.92 µM | > 100 µM | 21.2 µM | > 100 µM | 10.7 µM | 41.4 µM | 59.1 µM | > 100 µM | 15.7 µM | 49 µM | 3.4 µM | 30.4 µM | 6.55 µM | 90.8 µM
CCOC(=O)C(=Cc1ccccc1Br)C(=O)OCC | – | 4.97 µM | – | 5.16 µM | – | 5.82 µM | – | > 100 µM | – | 6.01 µM | – | 4.79 µM | – | 17.3 µM | – | 5.07 µM | – | 3.85 µM | – | 2.48 µM
Oc1ccc2ccccc2c1/C=N\Nc1ccccn1 | 1.55 µM | > 57.4 µM | 0.752 µM | > 100 µM | 8.81 µM | > 100 µM | 0.336 µM | 1.75 µM | 0.331 µM | – | 0.692 µM | 13.1 µM | 0.656 µM | > 21.6 µM | 1.25 µM | 7.03 µM | 1.57 µM | > 50.1 µM | 0.441 µM | 5.34 µM
